# Assays:
# [1] = test system: thigh muscle of C57BL/6 mice; experiment: Intramuscular naked mRNA delivery, luciferase assay in muscle homogenates; type: in vivo
# Text: (§1) Female mice of the strain C57BL/6 (Charles River) were used. Animal identification and conditions of housing, acclimatisation, environment, diet and water was in accordance with the current Standard Operating Procedures at the animal facilities at Oslo University Hospital—The Radium Hospital. Age and weight at start of dosing: 5-6 weeks, 18-20 g. The injection area was shaved before illumination.
# (§2) Firefly luciferase mRNA (L-7202—with modified base 5-methoxyuridine (5 moU), and with the TriLink CleanCap™ modification as the capping structure, purchased from TriLink Biotechnologies, San Diego, USA) was used.
# (§3) TPCS2a (Amphinex®, PCI Biotech AS, Norway) was used mixed in a volume of 20 μl PBS (e.g. using a 0.000015 μg/μl solution for a 0.0003 μg dose).
# (§4) mRNA (in aqueous solution, 20 μl of 0.1 μg/μl from stock solution of 1 μg/μl) in the amounts indicated in the table below were injected into the thigh muscle of each animal, with or without TPCS2a in the amounts indicated.
# (§5) […] Animals 7-12 were not illuminated. 20 hours after the injections the animals were analysed by IVIS and assayed for luciferase activity (Luciferase Assay System, Promega, Cat #E1500) in muscle homogenates.
# (§6) Muscle homogenates were prepared from frozen tissue samples using a Precelly homogenizer and lysis buffer with phosphatase and protease inhibitors (MSD, Cat. No. R60TX-2, R70AA-1). Protein analysis was performed using the DC Protein Assay (Biorad). Luciferase is expressed as relative units (RLU=relative luminescence units) per mass of protein in the samples.
# [2] = test system: thigh muscle of C57BL/6 mice; experiment: Intramuscular naked mRNA delivery, IVIS bio-luminescence imaging of injection sites; type: in vivo
# Text: as §1, §2, §3, §4, §5
# (§7) • 1. 20-24 hours after light (or TPCS2a injection), mice were given an intraperitoneal injection of 3 mg D-Luciferin (200 μl of 15 mg/ml stock). • 2. After approximately 10 minutes the mice were anaesthetized by a subcutaneous injection of Zoletil (15 mg/kg xylasin, 7.5 mg/kg butorphanol, 9 mg/kg zolazepam, and 9 mg tiletamine) • 3. 20 minutes after D-luciferin (Caliper Life Sciences) injection, the mice were placed in the IVIS instrument (IVIS Spectrum, model 124375R from PerkinElmer, Andor camera IS0825R4582; iKon Living Image version: 4.5.2.18424. Binning factor: 8; Excitation filter: Block; Emission filter: Open; f Number: 1) and pictures were taken with automatic exposure of Luminescence. • 4. Bio-luminescence is expressed as “Total Flux” (photon/second)×10^5.
# BL/6 mouse skin [3] = experiment: Intradermal naked mRNA delivery, luciferase assay in skin homogenates; type: in vivo, mice
# Method: as §6
# (§8) The materials and methods were as used in Example 1, except that the administration was intradermal and blue light was used (wavelength between 400 and 540 nm with a peak at around 435 nm from the LumiSource illumination device produced by PCI Biotech AS, with a 13 mW/cm^2 fluence rate—a 6 minute illumination delivers 4.7 J/cm^2). Luciferase activity was assessed as set out in Example 1 except that skin homogenates were used.
# The materials and methods were as used in Example 2. Luciferase activity was assessed as set out in Example 1 except that skin homogenates were used.
# The materials and methods were as used in Example 3 but with even lower doses. Luciferase activity was assessed as set out in Example 1 except that skin homogenates were used.
# BL/6 mouse skin [4] = experiment: Intradermal naked mRNA delivery, IVIS bio-luminescence imaging of injection sites; type: in vivo, mice; conditions: Example 5: intradermal, 2 μg mRNA + 0.003 μg TPCS2a, blue light 30 seconds after administration
# Method: as §7, §8
# The materials and methods were as used in Example 2. Animals were injected at two sites (left or right). IVIS was examined as set out in Example 1. […]
# BL/6 mice = experiment: Conclusions from Examples: fold increase (PCI/mRNA alone), IVIS and luciferase assay; type: in vivo; conditions: illumination 30 seconds after mRNA/photosensitiser injection
# Method: Good correspondence between the IVIS and luciferase assay results was observed. The fold increase (PCI/mRNA alone) with illumination only 30 seconds after mRNA/photosensitiser injection is higher than has been achieved in earlier experiments in which illumination was conducted 60 minutes after injection (3-5 times improvement). The improvement relative to using no photosensitiser is in the order of 30 fold. Shorter contact times were also effective at very low photosensitiser dose allowing for reduced side effects in subjects.
# [5] = Example 6: intramuscular, 2 μg mRNA + 0.0003 or 0.0001 μg TPCS2a, blue light 30 seconds after injection
substance,measurement,setting,value
tetraphenyl chlorin disulfonate [TPCS2a],mean fold of increase for the PCI treated sites vs mRNA only sites (luciferase assay),"[1]; Example 1: intramuscular, 2 μg mRNA + 0.0003 μg TPCS2a, red light 652 nm 1 J/cm^2 5 minutes after injection, 20 hours",4.9 times
same,effectiveness of low photosensitiser dose (luminescence and luciferase activity),"[1]; Example 6: intramuscular, 2 μg mRNA + 0.0001 μg TPCS2a, blue light 30 seconds after injection",highly effective
same,luciferase activity of PCI sites vs control sites receiving mRNA only,[1]; [5],significantly stronger
same,"luciferase activity in muscle, effectiveness at lower dose","[1]; Example 7: intramuscular, 2 μg mRNA + 0.0003 μg TPCS2a, blue light 30 seconds after injection",effective
same,"luciferase activity in muscle, effectiveness by photosensitiser dose","[1]; Example 8: intramuscular, 2 μg mRNA + 0.0003 μg TPCS2a (vs 0.003 and 0.1 μg), blue light 10 minutes after injection",more effective than the higher doses
same,increase by PCI (luciferase assay),"[1]; Example 9: intramuscular, 2 μg mRNA + 0.0001 μg TPCS2a, red light 0.3 to 3 J/cm^2, 5 minute interval",8-9 fold
same,"effect of PCI (luciferase assay), 10 minute interval","[1]; Example 9: intramuscular, 2 μg mRNA + 0.0001 μg TPCS2a, red light 0.3 to 3 J/cm^2, 10 minute interval",effective but not at the same levels as the 5 minute interval
same,bio-luminescence of PCI sites vs control sites receiving mRNA only,"[2]; Example 1: intramuscular, 2 μg mRNA + 0.0003 μg TPCS2a, red light 1 J/cm^2 5 minutes after injection",significantly stronger luminescence
same,bio-luminescence of PCI sites vs control sites receiving mRNA only,[2]; [5],significantly stronger luminescence
same,"bio-luminescence, effect of PCI at very low dose","[2]; Example 10: intramuscular, 2 μg mRNA + 0.000003 μg TPCS2a, red light 1 J/cm^2, 5 minute interval",An effect was observed
same,increase of bio-luminescence by PCI,"[2]; Example 10: intramuscular, 2 μg mRNA + 0.0001 μg TPCS2a, red light 1 J/cm^2, 5 minute interval",5 fold
same,increase of bio-luminescence by PCI,"[2]; Example 10: intramuscular, 2 μg mRNA + 0.0003 μg TPCS2a, red light 1 J/cm^2, 5 minute interval",7 fold
same,"enhancement of mRNA delivery (luciferase assay), longer contact times","BL/6 mouse skin [3]; Example 2: intradermal, 2 μg mRNA + 0.003 μg TPCS2a, blue light, 30 or 60 min contact time",much less effective
same,enhancement of mRNA delivery (luciferase assay) vs mRNA alone,"BL/6 mouse skin [3]; Example 2: intradermal, 2 μg mRNA + 0.003 μg TPCS2a, blue light, 10 minute contact time",about 20 times
same,"luciferase activity in skin, effectiveness by photosensitiser dose","BL/6 mouse skin [3]; Example 3: intradermal, 2 μg mRNA + 0.003 μg TPCS2a (vs 0.01 and 0.05 μg), blue light 30 seconds after injection",more effective than higher doses
same,"luciferase activity in skin, effectiveness at lower dose","BL/6 mouse skin [3]; Example 4: intradermal, 2 μg mRNA + 0.0003 μg TPCS2a, blue light 30 seconds after injection",effective
same,increase of bio-luminescence of PCI sites vs control sites receiving mRNA only,BL/6 mouse skin [4],around 7.2 fold
same,improvement of fold increase (PCI/mRNA alone) with illumination 30 seconds after injection over earlier experiments with illumination 60 minutes after injection,BL/6 mice,3-5 times
same,improvement relative to using no photosensitiser,BL/6 mice,~30 fold

# Reference: US20240115731A1, “METHOD OF DELIVERING MRNA IN VIVO” (PCI Biotech AS, priority 2021, published 2024)
